From patent US20210251883A1, “METHOD FOR PREPARING ENZYME-TREATED ZIZANIA LATIFOLIA TURCZ. EXTRACT HAVING INCREASED TRICIN CONTENT, AND COMPOSITION FOR WHITENING, WRINKLE REDUCTION, ANTI-INFLAMMATION, ANTI-ALLERGY AND MOISTURIZATION, PREPARED THEREBY” (BTC CORPORATION, priority 2018, published 2021)

What was measured:
RAW264.7 cells = test: NO assay in lipopolysaccharide-induced macrophage cell line RAW264.7; assay type: cell-based; details: concentration series of single substance; versus LPS
Protocol: The production of NO was confirmed through the NO assay, and the specific process was as follows: The macrophage cell line RAW264.7 was distributed from the Korea Cell Line Bank (KCLB, Seoul, Korea), and using DMEM medium (Welgene, Gyeongsan, Korea) to which 10% FBS and 1% antibiotics (penicillin/streptomycin) were added, the cells were subcultured 2 to 3 times in an incubator at 37° C. in the presence of 5% CO2 and used.
RAW264.7 cells were dispensed into a 96-well plate at […] and pre-cultured in a 5% CO2 incubator for 20 to 24 hours, and each extract sample was treated and cultured for 24 hours. […] After the reaction was completed, optical density (O.D) was measured with an ELISA reader at a wavelength of 540 nm. At this time, the measured O.D was expressed as a percentage (%) compared with the O.D value in the cells to which lipopolysaccharide was added.
Second, NO assay was performed to measure the anti-inflammatory effect of the Zizania latifolia Turcz. extract and tricin using RAW264.7. […] After the reaction was completed, optical density (O.D) was measured with an ELISA reader at a wavelength of 540 nm. At this time, the measured O.D was expressed as a percentage (%) compared with the O.D value in the cells to which lipopolysaccharide was added. […]

B16-F0 cells = test: inhibition of melanin production in melanin cell line B16-F0 (α-MSH/IBMX stimulated); assay type: cell-based, mouse; details: concentration series of single substance
Protocol: The whitening effect of the Zizania latifolia Turcz. extract prepared in the above Preliminary Experiments 2 to 4 was confirmed. First, mouse-derived melanin cell line B16-F0 cells were distributed from the American Type Culture Collection (ATCC, USA), and using DMEM medium (ATCC, ATCC 30-2002, USA) to which 10% FBS and 1% antibiotics (penicillin/streptomycin) were added, the cells were subcultured 2 to 3 times in an incubator at 37° C. in the presence of 5% CO2 and used.
Second, the ability of the Zizania latifolia Turcz. extract and tricin to inhibit melanin production in the mouse-derived melanin cell line B16-F0 was measured. B16-F0 cells were dispensed into a 6-well plate at 5×10^5 cells/well and pre-cultured in a 5% CO2 incubator for 20 to 24 hours, and then each extract sample was treated and cultured for 48 hours. […]
The melanoma cells adhered to the surface of the 6-well plate were removed from the cultured cells, dispensed into a 1.5 mL tube, and centrifuged at 13,000 rpm for 10 minutes using a centrifuge maintained at 4° C. […] After reacting for 1 hour in an oven at 60° C., 100 μL was dispensed to each well in a 96-well plate and O.D was measured with an ELISA reader (405 nm). […]

[1] = tested on: CCD-986sk fibroblast cells, human dermal fibroblasts (HDF); test: procollagen type I C-peptide EIA, collagen synthesis in fibroblasts; assay type: cell-based; details: concentration series of single substance
Protocol: The anti-wrinkle effect of the Zizania latifolia Turcz. extract prepared in Preliminary Experiments 2 to 4 was confirmed. First, human-derived CCD-986sk fibroblast cells were distributed from Korea Culture Tissue Collection (KCTC, Korea), and human dermal fibroblasts (HDF) were distributed from Seorin Bio. In addition, CCD-986sk fibroblasts were subcultured 2 to 3 times in an incubator at 37° C. in the presence of 5% CO2 using IMDM medium (ATCC, ATCC 30-2005, USA) supplemented with 10% FBS and 1% antibiotics (penicillin/streptomycin) and used. […]
Second, procollagen and MMP families (MMP-1, 2, 3, 9, 13) are factors that are discharged to the outside of the cell culture solution, and the cell culture solution reacted with the sample was collected and used. […] (standard sample), procollagen type I C-peptide EIA kit manufactured by Takara was used, the quantification curve was measured using PIP to calculate the amount of collagen synthesis for each sample. In addition, by measuring the inhibitory ability of metalloproteinase-1 (MMP-1), MMP-2, MMP-3, MMP-9, and […], which are factors affecting wrinkles, Zizania latifolia Turcz. enzyme treatment (standard sample) and tricin were evaluated for wrinkle improvement effect. The inhibitory ability of MMP-1, 2, 3, 9, 13 was measured using a product manufactured by Abcam.

RBL-2H3 cells = test: β-hexosaminidase release in IgE/antigen-stimulated RBL-2H3 cells; assay type: cell-based, rat; details: concentration series of single substance; versus DNP-HSA
Protocol: The anti-allergic efficacy of the Zizania latifolia Turcz. extract prepared in the above Preliminary Experiments 2 to 4 was confirmed. First, RBL-2H3 cells, a rat basophilic leukemia cell line, were purchased from Korea Cell Line Bank (KCLB, Seoul, Korea). RBL-2H3 cells were cultured in MEM (Gibco BRL, NY, USA) medium containing 10% FBS and 1% penicillin/streptomycin in an incubator at 37° C. and 5% CO2.
Second, the inhibitory effect of the extract on the release of β-hexosaminidase was confirmed in RBL-2H3 cells. RBL-2H3 cells were dispensed into a 24-well plate at 2×10^5 cells per well and stimulated with anti-DNP IgE (450 ng/mL) overnight at 37° C. […] Then, the reaction was stopped by immersing in an ice water bath for 10 minutes. 25 μL of the supernatant was transferred to a 96-well plate and 25 μL of 0.1 M citrate buffer (pH 4.5) in which the substrate (1 mM p-nitrophenyl-nacetyl-β-D-glucosaminide) is dissolved, was added and reacted at 37° C. for 1 hour. Thereafter, 200 μL of a stop solution (0.1 M Na2CO3/NaHCO3, pH 10.0) was added to stop the reaction, and the absorbance was measured at 405 nm using a microplate reader.

SKH-1 hairless mouse = test: UVB-irradiated wrinkle-induced SKH-1 hairless mouse animal experiment; assay type: in vivo
Description: The anti-wrinkle improvement and moisturizing effects were confirmed through animal experiments for the enzyme-treated extract of Zizania latifolia Turcz. prepared in the above Example 1. For the experiment, biochemical analysis equipment (Roche Ltd, Basel, Switzerland), glass teflon homogenizer (Chang shin scientific Co., Korea), microplate reader (Bio-TEK, USA), protein quantification equipment (Chemi-Doc; BIORAD, USA), a centrifuge (Hanil FLETA5, Korea), a water bath (Thermo minder taitec, Japan), and a deep freezer (Sanyo, Japan) were used. In addition, glass Teflon homogenizer (Daihan Scientific Group, Korea), UV-spectrophotometer (Shimadzu UV-1201, Japan), high-speed centrifuge (Hanil HMR-1610V, Korea), medical freezer (Sanyo, Japan)), a microplate reader (Bio-TEK), and protein quantification equipment (Chemi-Doc; BIORAD) were used. […]
First, the body weight of each animal was measured to observe the change in body weight. […]

COc1cc(-c2cc(=O)c3c(O)cc(O)cc3o2)cc(OC)c1O [tricin, Tricin]
NO generation according to the concentration (FIG. 7) (RAW264.7 cells): decreased in a concentration-dependent manner
melanin generation according to the concentration (FIG. 9) (B16-F0 cells): decreased in a concentration-dependent manner
collagen generation according to the concentration (FIG. 11) [1]: increased in a concentration-dependent manner
β-hexosaminidase release rate according to the concentration (FIG. 13) (RBL-2H3 cells): decreased in a concentration-dependent manner
moisture of the skin surface (SKH-1 hairless mouse; T group, 0.3 mg/kg oral, 14 weeks, UVB, FIG. 16): maintained
SILFLO microscopic observation of wrinkles versus group C (SKH-1 hairless mouse; group T, tricin 2 mg/kg as printed, until the 8th week of UVB irradiation): wrinkles were relatively less formed compared to group C
